Assay results taken from ChEMBL document CHEMBL2346647, “Identification and characterization of small molecule inhibitors of signal transducer and activator of transcription 3 (STAT3) signaling pathway by virtual screening” (Bioorg Med Chem Lett, 2013).
Active and inactive are the calls of the source. The calls are words filed in the database; no cut-off is given here.

Tests used:
[1] = target: Signal transducer and activator of transcription 3 (Homo sapiens) (UniProt P40763); test: Inhibition of IL-6-induced STAT3 phosphorylation at Tyr705 residue in human HepG2 cells pretreated for 6 to 48 hrs prior to IL-6 stimulation by Western blot analysis; assay type: cell-based
Sequence of Signal transducer and activator of transcription 3 (Homo sapiens) (P40763 whole entry): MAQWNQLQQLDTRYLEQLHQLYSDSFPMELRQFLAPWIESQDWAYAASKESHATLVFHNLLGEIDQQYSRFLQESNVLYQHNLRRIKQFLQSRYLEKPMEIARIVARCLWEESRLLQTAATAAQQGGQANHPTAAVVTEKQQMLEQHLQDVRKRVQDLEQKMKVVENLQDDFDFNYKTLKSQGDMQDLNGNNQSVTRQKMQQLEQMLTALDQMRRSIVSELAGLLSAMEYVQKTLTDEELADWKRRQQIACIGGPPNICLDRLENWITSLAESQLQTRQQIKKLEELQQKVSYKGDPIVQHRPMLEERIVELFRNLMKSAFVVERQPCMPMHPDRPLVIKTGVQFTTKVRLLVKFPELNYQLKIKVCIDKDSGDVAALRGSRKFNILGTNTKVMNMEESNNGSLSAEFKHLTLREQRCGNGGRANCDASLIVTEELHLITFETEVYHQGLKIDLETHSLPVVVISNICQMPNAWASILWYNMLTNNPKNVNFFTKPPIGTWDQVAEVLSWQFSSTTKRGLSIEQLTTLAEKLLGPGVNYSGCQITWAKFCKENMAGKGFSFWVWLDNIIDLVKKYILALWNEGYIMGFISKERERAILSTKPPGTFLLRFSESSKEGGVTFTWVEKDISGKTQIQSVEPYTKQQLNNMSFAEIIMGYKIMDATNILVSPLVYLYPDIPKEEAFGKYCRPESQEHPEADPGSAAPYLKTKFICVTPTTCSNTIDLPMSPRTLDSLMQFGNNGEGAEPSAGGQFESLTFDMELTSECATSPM

[2] = test system: MDA-MB-468; test: Cytotoxicity against human MDA-MB-468 cells assessed as inhibition of cell viability at 10 uM; assay type: functional
[3] = target: Signal transducer and activator of transcription 3 (Homo sapiens) (UniProt P40763); test: Inhibition of IL-6-induced STAT3 pathway in human HepG2 cells at 10 uM by luciferase reporter gene assay; assay type: cell-based
[4] = test system: HepG2; test: Effect on JAK2 protein level in human HepG2 cells pretreated at 50 uM for 48 hrs prior to IL-6 stimulation by Western blot analysis; assay type: functional, cell-based
[5] = test system: HepG2; test: Effect on SRC protein level in human HepG2 cells pretreated at 50 uM for 48 hrs prior to IL-6 stimulation by Western blot analysis; assay type: functional, cell-based
[6] = target: Proto-oncogene tyrosine-protein kinase Src (Homo sapiens) (UniProt P12931); test: Effect on SRC in human HepG2 cells pretreated at 50 uM for 6 to 48 hrs prior to IL-6 stimulation by Western blot analysis; assay type: cell-based
Sequence of Proto-oncogene tyrosine-protein kinase Src (Homo sapiens) (P12931 2-536 limits assumed): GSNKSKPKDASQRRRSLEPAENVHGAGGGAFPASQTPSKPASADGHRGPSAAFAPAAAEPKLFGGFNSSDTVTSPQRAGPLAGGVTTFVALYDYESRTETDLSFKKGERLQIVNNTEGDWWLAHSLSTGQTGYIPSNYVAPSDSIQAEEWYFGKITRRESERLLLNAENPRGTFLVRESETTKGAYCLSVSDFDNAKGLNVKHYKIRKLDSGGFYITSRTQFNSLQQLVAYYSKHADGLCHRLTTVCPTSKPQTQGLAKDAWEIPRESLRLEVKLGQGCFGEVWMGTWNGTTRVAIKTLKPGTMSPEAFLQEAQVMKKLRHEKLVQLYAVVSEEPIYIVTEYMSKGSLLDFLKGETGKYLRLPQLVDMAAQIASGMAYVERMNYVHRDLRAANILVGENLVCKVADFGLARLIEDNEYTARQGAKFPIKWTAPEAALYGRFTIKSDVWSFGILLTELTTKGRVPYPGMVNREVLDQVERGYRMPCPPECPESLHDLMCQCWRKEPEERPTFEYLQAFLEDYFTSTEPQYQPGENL

[7] = target: Tyrosine-protein kinase JAK2 (Homo sapiens) (UniProt O60674); test: Effect on JAK2 in human HepG2 cells pretreated at 50 uM for 48 hrs prior to IL-6 stimulation by Western blot analysis; assay type: cell-based
Sequence of Tyrosine-protein kinase JAK2 (Homo sapiens) (O60674 whole entry): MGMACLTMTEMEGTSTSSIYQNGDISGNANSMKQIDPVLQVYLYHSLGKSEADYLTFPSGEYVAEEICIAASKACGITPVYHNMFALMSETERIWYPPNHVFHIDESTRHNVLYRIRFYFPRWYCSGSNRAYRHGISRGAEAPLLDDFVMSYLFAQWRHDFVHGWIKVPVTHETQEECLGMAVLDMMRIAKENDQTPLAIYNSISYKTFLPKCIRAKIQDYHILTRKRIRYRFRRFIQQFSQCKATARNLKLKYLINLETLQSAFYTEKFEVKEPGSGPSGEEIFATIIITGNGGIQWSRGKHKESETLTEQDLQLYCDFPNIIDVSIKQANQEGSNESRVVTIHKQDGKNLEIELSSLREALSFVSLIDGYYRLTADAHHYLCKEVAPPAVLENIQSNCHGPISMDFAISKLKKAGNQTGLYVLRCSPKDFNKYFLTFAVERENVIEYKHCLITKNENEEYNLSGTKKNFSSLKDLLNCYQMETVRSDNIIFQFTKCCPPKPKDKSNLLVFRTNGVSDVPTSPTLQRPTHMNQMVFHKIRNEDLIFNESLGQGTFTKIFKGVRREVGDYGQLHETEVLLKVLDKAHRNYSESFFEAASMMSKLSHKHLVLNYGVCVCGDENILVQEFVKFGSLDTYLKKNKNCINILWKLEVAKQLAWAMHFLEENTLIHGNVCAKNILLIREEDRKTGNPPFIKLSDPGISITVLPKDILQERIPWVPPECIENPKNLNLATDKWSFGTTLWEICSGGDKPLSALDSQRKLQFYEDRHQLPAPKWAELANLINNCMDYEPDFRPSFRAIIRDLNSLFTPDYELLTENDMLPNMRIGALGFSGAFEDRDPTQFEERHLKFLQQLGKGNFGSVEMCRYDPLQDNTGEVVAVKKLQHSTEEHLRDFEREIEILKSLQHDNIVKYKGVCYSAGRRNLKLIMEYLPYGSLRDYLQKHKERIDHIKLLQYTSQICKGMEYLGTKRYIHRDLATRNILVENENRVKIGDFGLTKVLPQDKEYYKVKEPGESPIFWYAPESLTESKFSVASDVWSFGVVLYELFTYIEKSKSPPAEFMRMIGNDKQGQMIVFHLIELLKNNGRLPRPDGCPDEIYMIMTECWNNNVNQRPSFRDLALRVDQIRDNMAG

[8] = test system: HepG2; test: Effect on total STAT3 protein level in human HepG2 cells pretreated for 6 hrs prior to IL-6 stimulation by Western blot analysis; assay type: functional, cell-based
[9] = target: Signal transducer and activator of transcription 3 (Homo sapiens) (UniProt P40763); test: Inhibition of IL-6-induced STAT3 phosphorylation at Tyr705 residue in human HepG2 cells pretreated at 50 uM for 6 to 48 hrs prior to IL-6 stimulation by Western blot analysis; assay type: cell-based
[10] = test system: MDA-MB-468; test: Cytotoxicity against human MDA-MB-468 cells assessed as inhibition of cell viability; assay type: functional, cell-based
[11] = target: T1, Signal transducer and activator of transcription 1-alpha/beta (Homo sapiens) (UniProt P42224); test: Inhibition of IFN-gamma-induced STAT1 (unknown origin) at 10 uM
T1 sequence (whole entry): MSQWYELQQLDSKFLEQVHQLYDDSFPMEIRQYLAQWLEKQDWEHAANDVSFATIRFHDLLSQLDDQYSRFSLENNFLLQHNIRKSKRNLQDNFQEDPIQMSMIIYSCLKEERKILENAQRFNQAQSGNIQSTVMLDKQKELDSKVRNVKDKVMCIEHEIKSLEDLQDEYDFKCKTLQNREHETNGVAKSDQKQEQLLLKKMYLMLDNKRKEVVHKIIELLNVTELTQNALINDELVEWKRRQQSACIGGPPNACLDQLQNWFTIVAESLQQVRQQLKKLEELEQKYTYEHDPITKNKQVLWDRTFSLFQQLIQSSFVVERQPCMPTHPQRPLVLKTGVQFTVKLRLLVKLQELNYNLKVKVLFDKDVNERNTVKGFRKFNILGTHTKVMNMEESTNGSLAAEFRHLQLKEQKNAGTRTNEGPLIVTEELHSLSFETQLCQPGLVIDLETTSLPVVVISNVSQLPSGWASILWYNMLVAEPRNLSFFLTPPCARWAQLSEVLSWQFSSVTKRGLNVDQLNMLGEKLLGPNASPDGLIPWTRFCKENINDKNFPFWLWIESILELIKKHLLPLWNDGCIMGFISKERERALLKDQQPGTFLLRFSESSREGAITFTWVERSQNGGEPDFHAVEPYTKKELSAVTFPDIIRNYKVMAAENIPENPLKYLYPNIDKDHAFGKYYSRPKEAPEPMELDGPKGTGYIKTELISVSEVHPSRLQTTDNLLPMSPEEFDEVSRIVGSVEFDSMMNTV

SMILES | inhibition at 10 µM [2] [%] | inhibition [3] [%] | further results
COc1cc(/C=C/C(=O)CC(=O)/C=C/c2ccc(O)c(OC)c2)ccc1O [CURCUMIN] | 3.88 | 41 | inhibition [1]: Dose-dependent effect
CC(O)CNCc1c(OCc2ccccc2Cl)ccc2ccccc12 (stereo not drawn) | 14.9 | – | –
Cc1cccc(NCc2cc(Br)ccc2OCc2ccc(Cl)cc2)c1C | -2.03 | 34.5 | –
Clc1ccc(COc2ccccc2CNCc2ccccn2)cc1 | 18.9 | 15.6 | –
COc1ccc(Cl)cc1CNCc1ccc2c(c1)OCO2 | -4.03 | -6.39 | –
NC(=O)COc1ccc(Cl)cc1CNCCN1CCOCC1 | -2.61 | 3.63 | –
C#CCOc1ccc(Cl)cc1CNc1ccccc1Cl | 15.5 | – | –
Fc1ccc(COc2ccc(Cl)cc2CNCC2CCNCC2)cc1 | 38.8 | – | –
O=C(O)c1ccc(CNCc2ccccc2OCc2ccccc2)cc1 | -10.8 | -8.72 | –
NS(=O)(=O)c1ccc(NCc2cc(Cl)ccc2OCc2ccccc2)cc1 | 27.7 | 42.1 | Activity [4]: inactive; Activity [5]: inactive; Activity [6]: inactive; Activity [7]: inactive; Activity [8]: inactive; inhibition [9]: Active; IC50 [10]: 28.3 µM
Oc1ccc(NCc2cc(Cl)ccc2OCc2ccc(Cl)cc2)cc1 | 46.8 | 44.9 | Activity [4]: inactive; Activity [5]: inactive; Activity [6]: inactive; Activity [7]: inactive; Activity [8]: inactive; inhibition [9]: Active; IC50 [10]: 18.8 µM; inhibition [11]: 14.3%
NC(=O)COc1ccc(Cl)cc1CNCCc1ccccc1 | -8.1 | 14.3 | –
Clc1ccc(OCc2ccccc2Cl)c(CNCc2ccccc2)c1 | 10.7 | 36.6 | –
COCCNCc1ccc(OCc2cc(Cl)cc(Cl)c2)cc1 | 16.4 | 20.2 | –
Fc1ccc(COc2ccc(Cl)cc2CNCC2CCCO2)cc1 (stereo not drawn) | 27.5 | 27.8 | –
OCCNCc1cc(Br)ccc1OCc1ccc(Cl)cc1 | 26.6 | 33.2 | IC50 [10]: 23 µM
NC(=O)COc1ccc(Cl)cc1CNCc1ccc(F)cc1 | 54.8 | 1.69 | –
